# According to patent US20190167771A1, “CONTROL ANGIOGENESIS BY REGULATING PHOSPHORYLATION OF SERYL-tRNA SYNTHETASE (SerRS)” (The Scripps Research Institute, priority 2016, published 2019):
# Tests used:
# VEGFA = VEGFA mRNA induction by 12-hour hypoxia in HEK293 cells (qRT-PCR); format: cell-based, human; details: hypoxia 12 hours
# Procedure: In FIG. 3B, HEK293 cells were transiently transfected with SerRS^WT or SerRS^S101A/S241A constructs or empty control vector. 24 hours post-transfection, VEGFA mRNA induction by 12-hour-hypoxia treatment was monitored by qRT-PCR (means±SEM from four independent experiments; *P<0.05, **P<0.01, ***P<0.005). In FIG. 3C, HEK293 cells were transiently transfected with indicated constructs. 36 hours post-transfection, VEGFA mRNA induction by 12-hour-hypoxia treatment was monitored by qRT-PCR (means±SEM from four independent experiments; *P<0.0, **P<0.001, ***P<0.0001). The protein levels of SerRS, HIF-1α, and β-actin were examined by western blot (bottom).
# Transient transfections were performed using Lipofectamine 2000 (ThermoFisher Scientific).
# One gram of the total RNA from each sample was reversely transcribed to cDNA by M-MLV reverse transcriptase (Promega, Madison, Wis., USA). All real-time PCR reactions were performed using the StepOnePlus Real-Time PCR system (ThermoFisher Scientific) with SYBR Select Master Mix ThermoFisher Scientific). […] The PCR reaction program started at 95° C. for 10 min, followed by 45 cycles of 95° C. for 20 seconds and 60° C. for 1 min. Each experiment was carried out in triplicate. The VEGFA gene expression was normalized to that of β-ACTIN. Statistical analyses were performed with the software SigmaPlot (version 10.0). Student's t-test was used to analyze the changes between different groups.
# SIRT2 = assay: Co-immunoprecipitation of SerRS with SIRT2 in HEK293 cells; format: cell-based, human; details: V5-tagged SIRT2 and Flag-tagged SerRS co-transfected
# Procedure: The cytosolic fractions (Cy), nuclear fractions (Nu), and the whole cell lysates (WCL) were examined by immunoblot with antibodies against SerRS, nuclear protein Lamin A/C, and cytosolic protein α-tubulin. In FIG. 8B, HEK293 cells were transfected with Flag-tagged SerRS^WT, SerRS^S101A/S241A, or SerRS^S101D/S241D and subjected to cell fractionation and IB with anti-Flag, anti-Lamin A/C, and anti-α-tubulin antibodies. In FIG. 8C, HEK293 cells were cultured under hypoxia for 6 hours and 12 hours. Cells were then lysed and subjected to IP with anti-SerRS antibody and IB with both anti-SerRS and anti-SIRT2 antibodies. In FIG. 8D, HEK293 cells were co-transfected with V5-tagged SIRT2 and Flag-tagged wild type or mutant SerRS. 24 hours post-transfection, cell lysates were subjected to IP with anti-Flag antibody and IB with anti-V5 antibody.
# Cells were resuspended with lysis buffer (20 mM Tris-HCl (pH 7.5), 150 mM NaCl, 1 mM of EDTA, 1 mM EGTA, 1% Triton X-100, 2.5 mM sodium pyrophosphate, 1 mM beta-glycerophosphate, 1 mM Na3VO4, and protease inhibitor cocktail) on ice. Supernatants were incubated with indicated antibodies and protein-G-conjugated agarose beads (ThermoFisher Scientific) for at least 2 h. […]
# ATM/ATR kinases = assay: Phosphorylation of exogenously expressed Flag-tagged SerRS in hypoxic HEK293 cells (IP/IB with anti-P-SQ); format: cell-based, human; details: hypoxia 12 hours
# [1] = tested on: SerRS binding site on human VEGFA promoter; assay: EMSA with 32P-labeled 27-bp DNA fragment of the VEGFA promoter; details: recombinant protein
# VEGFA promoter = assay: Chromatin immunoprecipitation (ChIP) on VEGFA promoter in HEK293 cells; format: cell-based, human; details: ChIP and qPCR
# Procedure: In FIG. 2A, wild type SerRS (SerRS^WT), its mutants with double substitutions of serine 101 and 241 with alanine or aspartic acid residues (SerRS^S101A/S241A and SerRS^S101D/S241D), or empty vector were transfected into HEK293 cells. The expression levels of SerRS proteins was measured by immunoblot (bottom) and VEGFA expression was determined by qRT-PCR (means±SEM from three independent experiments; ***P<0.0001). […] At 3 day post fertilization (dpf), embryos were harvested and Vegfa expression levels were measured by qRT-PCR (means±SEM, n=125-211; *P<0.01, **P<0.001) (B). The development of intersegmental vessel (ISV) at 3 dpf was examined (C) and the statistics of ISV abnormal branching rescued by SerRS^WT or mutant SerRS mRNA injections was analyzed (D; χ^2-test,* P>0.05 vs SerRS^WT, **P>0.1 vs SerRS-MO, ***P<1×10^−28 vs control-MO). […] In FIG. 2G, the binding of endogenous SerRS on VEGFA promoter during hypoxia course was monitored by ChIP (means±SEM from three independent experiments; *P<0.05, **P<0.005 vs normal).
# Cells were fixed with formaldehyde (1% final concentration) for 10 min at room temperature. […] After 3 washes, ChIPed DNA was analyzed on the StepOnePlus Real-Time PCR system using SYBR Select Master Mix (Applied Biosystems). […]
# [2] = overexpression of SerRS construct, 24 hours post-transfection
Substance,VEGFA induction under hypoxia (VEGFA; SerRS construct expressed while HIF is knocked down by shRNA (shHIF)),VEGFA induction under hypoxia (VEGFA; [2]),interaction with SIRT2 (SIRT2),phosphorylation of exogenously expressed SerRS (ATM/ATR kinases),direct binding to 27-bp DNA fragment from the VEGFA promoter [1],binding on VEGFA promoter (VEGFA promoter)
"SerRS^S101A/S241A: phosphorylation-deficient human SerRS double mutant, serine 101 and 241 to alanine, SEQ ID NO: 4 (mouse version in matrigel assay)",completely inhibited VEGFA induction,significantly suppressed VEGFA induction,as strong as with SerRS^WT,much weaker phosphorylation than wild type SerRS,–,–
"SerRS^S101D/S241D: SerRS with double substitutions of S101 and S241 with aspartic acid, mimics the phosphorylated SerRS",–,–,as strong as with SerRS^WT,–,attenuated,decreased binding on VEGFA promoter
"SerRS^WT: wildtype human seryl-tRNA synthetase protein, SEQ ID NO: 1 (mouse wild type used in the 3B11 matrigel assay)",–,had no effect,–,–,–,–
